{"source": "patent US20120329860A1", "about": "“Uses of Beta-Nicotinamide Adenine Dinucleotide” (MEDICAL COLLEGE OF GEORGIA INSTITUTE, INC, priority 2010, published 2012)", "key": {"[1]": {"tested_on": "VE-cadherin-positive cell-cell junctions in HPAEC", "test": "VE-cadherin immunofluorescence of HPAEC monolayers", "type": "cell-based, human", "settings": "50 μM b-NAD, 30 minutes", "description": "Immunostaining was performed as described (Kolosova et al., 2005, Circ Res 97(2):115-124). The DNA-binding, fluorescent dye 7-amino-actinomycin D (7AAD) was used to stain cell nuclei. The percentage of total cell surface area occupied by VE-cadherin-positive cell-cell junctions was quantitatively determined using Zeiss Microscope quantification Software."}, "[2]": {"tested_on": "LPS-induced ALI in mice", "test": "BAL total protein in LPS-induced lung injury", "type": "in vivo", "settings": "β-NAD (i.v.) simultaneously with LPS (i.t.), 18 hr", "description": "Female C57BL/6J mice (8-10 weeks old) weighing 20-25 g were purchased from Charles River Laboratory (Wilmington, Mass.). Animals were housed in plastic cages and had access to food and water. The animals were kept at room temperature and exposed to continuous cycles of 12 hr light and darkness.\nMice were anesthetized with ketamine (150 mg/kg) and acetylpromazine (15 mg/kg) intraperitoneally (i.p.) before the exposure of the trachea via neck incision and intubation with 20-guage catheter and the right internal jugular vein was exposed via right chest incision for PBS or b-NAD installation. The mice were randomly divided into groups. […] Simultaneously, mice received either b-NAD (5.4 mg/kg, equivalent to final calculated plasma concentration […] or PBS in the control group intravenously (i.v.) through the internal jugular vein (IJ). The animals were allowed to recover for 18 hr. EBD was given through the IJ 2 hr prior to termination of the experiment. At termination, bronchoalveolar lavage (BAL) was collected. BAL was 1ml of 10% HBSS through the endotracheal catheter immediately on sacrifice with aspiration. BAL was immediately centrifuged and processed. After the BAL, ethylenediaminetetraacetic acid (EDTA) was used to flush the lungs of blood via the right heart ventricle and the lungs were then harvested. […]"}, "[3]": {"tested_on": "Myeloperoxidase (MPO)", "test": "Myeloperoxidase (MPO) activity and staining in lungs", "type": "in vivo, mice", "description": "MPO is a hemoprotein that is abundantly expressed in polymorphonuclear leukocytes (neutrophils) and secreted during their activation. MPO assay was carried out according to the manufacturer's assay protocol (Cayman Chemicals). Lungs of vehicle, LPS or LPS/b-NAD treated mice were used for the MPO assay. Lungs (free of blood) were weighed and snap frozen in liquid nitrogen. The left lung was weighed and homogenized in the lysis buffer and then centrifuged (12,000×g, 30 min). The protein from the clear supernatant was estimated and normalized from different treatment and analyzed for the MPO levels by ELISA. Values represent mean±SEM (n=3)."}}}
{"compound": "NC(=O)C1=CN([C@@H]2O[C@H](COP(=O)(O)OP(=O)(O)OC[C@H]3O[C@@H](n4cnc5c(N)ncnc54)[C@H](O)[C@@H]3O)[C@@H](O)[C@H]2O)C=CC1", "note": "[β-NAD, beta-nicotinamide adenine dinucleotide]", "values": [{"measurement": "VE-cadherin recruitment to cell-cell junctions", "setting": "[1]", "result": "Appreciably more VE-cadherin was recruited to the area of cell-cell junctions"}, {"measurement": "percentage of total cell-surface area occupied by VE-cadherin-positive cell-cell junctions (mean)", "setting": "[1]; 20 cells per group, control 17.42%", "result": 61.03, "unit": "%"}, {"measurement": "LPS-induced BAL protein accumulation", "setting": "[2]", "result": "significantly attenuated"}, {"measurement": "MPO staining of lung sections (neutrophil infiltration)", "setting": "[3]; LPS with β-NAD treatment", "result": "attenuated the LPS-induced myeloperoxidase"}, {"measurement": "MPO activity in lungs", "setting": "[3]; LPS/b-NAD vs LPS challenged mice", "result": "attenuated MPO activity"}, {"measurement": "MPO activity in lungs, β-NAD alone", "setting": "[3]; β-NAD alone, no LPS", "result": "no effect"}]}
